Test results published in patent publication US20150352134A1, “COMPOSITION FOR TOPICAL SKIN APPLICATION CONTAINING GINSENOSIDE F2 DERIVED FROM HYDROPONIC GINSENG” (AMOREPACIFIC CORPORATION, priority 2012, published 2015).

Legend:
[1] = biological target: T1, elastase type III (Sus scrofa, UniProt P00772); assay: Elastase inhibitory effect; type: biochemical; details: EGCG 250 μM; 25° C., 15 minutes, absorbance 415 nm
T1 construct: purchased Sigma-Aldrich E0127
Method: The elastase inhibitory function of the ginsenoside F2 is measured in comparison with that of EGCG. The elastase and the substrate used herein are purchased from Sigma-Aldrich, U.S.A. (Cat. No. E0127).
The elastase inhibitory function is measured according to the following method.
In a 96-well plate, ginsenoside F2 (200 μL) and 50 μL of a 20 μg/mL elastase type III solution are mixed with a […] tris-HCL buffer solution (pH 8.0). The positive control is EGCG 250 μM, and the negative control which is a non-treated group is distilled water. Then, 100 μL of 0.4514 mg/mL N-succinyl-ala-ala-ala-p-nitroanilide prepared with the buffer solution is added to the mixture and allowed to react at 25° C. for 15 minutes. After completion of the reaction, the absorbance at 415 nm was measured. The blank test is performed in the same manner as described above to achieve calibration verification.
The elastase inhibitory function is calculated according to the following mathematical formula 1, and the results are presented in Table 2.
Elastase inhibition rate (%)={1−(C−D)/(A−B)}×100 [Mathematical Formula 1]
A: Absorbance at 415 nm with enzyme and no test substance.
B: Absorbance at 415 nm with no test substance and no enzyme.
C: Absorbance at 415 nm with test substance and enzyme.
D: Absorbance at 415 nm with test substance and no enzyme.

[2] = test system: mouse with vitiligo (C57b1/6-Mitf^mi-vit); assay: Grey hair prevention: melanin in newly grown hair of mouse with vitiligo; type: in vivo; details: applied twice a day, about 3 weeks, 50 mM IBMX, 2.5% ginsenoside F2
Method: A mouse with vitiligo (C57b1/6-Mitf^mi-vit) is purchased from The Jackson Lab in U.S.A. The testing method on the grey hair inhibitory effect using a mouse with lots of grey hair is carried out as follows. A 12-week old mouse is subjected to depilation on the back side. The area of the depilated region is controlled to be the same to every object. From the next day of the depilation, the grey hair inhibitory substances are applied on the depilated region twice a day. The vehicle for the grey hair inhibitory substances is the mixture of EtOH, 1,3-BG and DW (3:2:5 in volume ratio). The liquid containing the vehicle alone is the negative control, the liquid containing the vehicle in combination with 50 mM IBMX is the positive control, and the liquid containing the vehicle in combination with 2.5% ginsenoside F2 is the test group. When the difference in the grey hair inhibitory effect between the substances is visually recognizable in about 3 weeks, the newly grown hair is collected to measure the quantity of melanin produced in the hair. The quantity of melanin in the hair is measured using esperase (Novozyme) strains that are a protein hydrolase. Esperase is dissolved in a buffer solution (50 mM tris-HCl, 5 mM DTT, pH 9.3) to a concentration of 1 NPU/ml to prepare a reaction buffer. 5 mg of mouse hair is put in 1 ml of the reaction buffer, which is stirred at a speed of 1,000 rpm at 37° C. for 13 hours to cause the reaction and then subjected to a momentary centrifugal isolation to separate the reactant solution from hair. The reactant solution thus obtained is placed in each well of a 96-well plate, and the absorbance at 405 nm is measured to determine the amount of melanin in the reactant solution. When a mouse with vitiligo and lots of grey hair is treated with the negative control substance, the positive control substance, or the test substance, the efficacies are visually observed, and the melanin in hair is quantitatively analyzed.

[3] = test system: tyrosinase; assay: Tyrosinase expression in melanocytes (Western Blot); type: cell-based; details: 501me1 cell line, IBMX 100 μM, ginsenoside 10 ppm
Method: 501me1 cell line is injected in each well of a 6-well microtiter plate at a rate of 500,000 cells/well. The cell line in each well is treated with 0.1% of DMSO as the negative control group, 100 μM of IBMX as the positive control group, or ginsenoside 10 ppm of F2 as the test group, and cultured at 37° C. for 24 hours, 48 hours, or 72 hours, to obtain proteins. The proteins thus obtained are subjected to Western Blot using MITF and tyrosinase antibodies. Protein extraction and Western Blot are performed using the standard methods known in the art.

[4] = test system: collagenase (MMP-1); assay: Collagenase (MMP-1) expression in human fibroblasts (ELISA); type: cell-based; details: 10 μg/mL for 24 hours; not treated control = 100
Method: The ginsenoside F2 of the present invention is measured in regards to the inhibitory effect on the generation of collagenase in comparison with retinoic acid. […] The human fibroblasts are treated with ginsenoside F2 or retinoic acid at a concentration of 10 μg/mL for 24 hours. Then, the cell culture medium is collected. The production yield of collagenase in the collected cell culture medium is measured using a collagenase measurement instrument commercially available (Catalog #. RPN 2610, USA Amersham Pharma Inc.). Firstly, the collected cell culture medium is put in each well of a 96-well plate uniformly coated with the primary collagenase antibodies and then subjected to antigen-antibody reactions in a thermostat container for 3 hours. After 3 hours, the secondary collagenase antibodies coupled to the chromophore groups are put in each well of the 96-well plate and then allowed to react for more 15 minutes. […] The intensity of yellowness in the reaction mixture is varied depending on the progress of the reaction. The absorbance of the yellow-colored 96-well plate is measured at 405 nm with a spectrophotometer, and the expression level of collagenase is calculated according to the following mathematical formula 2. In this regard, the absorbance of the cell culture medium collected from the group not treated with the composition of the present invention is considered as the absorbance of the control. [formula]

[5] = test system: Melanin-a cells; assay: Melanogenesis promotion in Melanin-a cells; type: cell-based; details: 3 days, DMSO (0.1%) = 100
Method: Melanin-a cells are injected in a 24-well microtiter plate at a rate of 50,000 cells per well with an RPMI medium containing 5% fetal bovine serum, 100 IU penicillin G, and 0.2 μM TPA. Next day, the cells are treated with ginsenoside F2 as a test substance independently at the final concentration of 10 ppm or 50 ppm. The negative control is treated with 0.1% DMSO, and the positive control is treated with 100 μM IBMX. Then, the cells are cultured at 37° C. for 3 days. The wells of the plate are washed with PBS, and 100 μl of 1N NaOH is added to each well to dissolve melanin in the cells. The absorbance of the dissolved melanin is measured at 405 nm with a microplate reader. The effect of the ginsenoside F2 to promote melanogenesis is evaluated in comparison with that of the control groups.

T1 sequence (P00772 27-266): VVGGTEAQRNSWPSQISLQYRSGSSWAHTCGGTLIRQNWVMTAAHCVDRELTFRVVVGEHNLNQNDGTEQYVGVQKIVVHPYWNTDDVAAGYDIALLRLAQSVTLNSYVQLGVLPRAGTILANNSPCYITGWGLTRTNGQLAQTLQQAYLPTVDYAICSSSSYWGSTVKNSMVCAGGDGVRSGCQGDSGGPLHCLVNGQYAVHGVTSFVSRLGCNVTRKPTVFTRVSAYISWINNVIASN

## CC(C)=CCC[C@](C)(O[C@@H]1O[C@H](CO)[C@@H](O)[C@H](O)[C@H]1O)[C@H]1CC[C@]2(C)[C@@H]1[C@H](O)C[C@@H]1[C@@]3(C)CC[C@H](O[C@@H]4O[C@H](CO)[C@@H](O)[C@H](O)[C@H]4O)C(C)(C)[C@@H]3CC[C@]12C [Ginsenoside F2, ginsenoside F2]
[1]
  Inhibition rate (%) (elastase): 78%
[2]
  Amount of melanin (%) with respect to control: 110.8%
[3]; 24 hrs
  Tyrosinase (Western Blot, in comparison with 100 of the negative control group): 150
[3]; 48 hrs
  Tyrosinase (Western Blot, in comparison with 100 of the negative control group): 182
[3]; 72 hrs
  Tyrosinase (Western Blot, in comparison with 100 of the negative control group): 211
[4]
  Collagenase expression level(%): 73%
[5]; 10 ppm
  Yield of Melanin (%): 113%
[5]; 50 ppm
  Yield of Melanin (%): 129%

## CC(C)=CCC[C@](C)(O[C@@H]1O[C@H](CO[C@@H]2O[C@H](CO)[C@@H](O)[C@H](O)[C@H]2O)[C@@H](O)[C@H](O)[C@H]1O)[C@H]1CC[C@]2(C)[C@@H]1[C@H](O)C[C@@H]1[C@@]3(C)CC[C@H](O[C@@H]4O[C@H](CO)[C@@H](O)[C@H](O)[C@H]4O[C@@H]4O[C@H](CO)[C@@H](O)[C@H](O)[C@H]4O)C(C)(C)[C@@H]3CC[C@]12C [Ginsenoside Rb1]
[1]
  Inhibition rate (%) (elastase): 71%
[2]
  Amount of melanin (%) with respect to control: 107.1%
[3]; 24 hrs
  Tyrosinase (Western Blot, in comparison with 100 of the negative control group): 149
[3]; 48 hrs
  Tyrosinase (Western Blot, in comparison with 100 of the negative control group): 165
[3]; 72 hrs
  Tyrosinase (Western Blot, in comparison with 100 of the negative control group): 189
[4]
  Collagenase expression level(%): 74%
[5]; 10 ppm
  Yield of Melanin (%): 112%
[5]; 50 ppm
  Yield of Melanin (%): 120%
